Test system: refractory chronic cough (RCC)
Test: Clinical Trial 2: objective cough frequency (VitaloJAK 24-hour recording) in RCC patients
Assay type: in vivo, human
Parameters: Cough frequency, Ln Mean (SE), Treatment, 8 hours (GEE) / Cough frequency, Ln Mean (SE), Treatment, 4 hours (GEE) / Cough frequency, Ln Mean (SE), Treatment, 24 hours (GEE): unit not given here
Procedure: The primary objective of the study was to assess the effectiveness of AX-8 (the study drug) for the treatment of RCC and associated upper airway symptoms after one dose of treatment (an orally disintegrating tablet (ODT) having 5 mg AX-8, administered orally and dissolved on the tongue) in reducing awake cough frequency compared to baseline, for the purpose of planning a future randomized controlled trial. Subjects took a single orally disintegrating tablet (ODT) with 5 mg AX-8 in the morning on the first day of the treatment period (Day 1). This Investigational Medical Product (IMP) was let to dissolve on the tongue. […] Objective cough frequency was measured as 24-hour sound recordings using a custom-built digital recording device (VitaloJAK, Vitalograph, Ltd). VitaloJAK™ is a semi-automated 24-hour ambulatory cough monitoring system (Vitalograph; Buckinghamshire, England) operating in a manner which completely replicates routine practice. The 24-hour recordings are compressed using custom designed compression software, using an algorithm. The VitaloJAK™ is a reliable, robust and efficient tool for the objective measurement of cough frequency. Importantly it reduces 24-hour recordings by up to 98% whilst preserving close to 100% of recorded cough sounds. It is worn like a Holter monitor, with a single sensor affixed to the patient's chest wall. An optional second channel via a conventional microphone (worn, for example, on the patient's shirt) allows quality assurance with human intervention. The device itself is attached on the trousers, skirt, etc. The 24-hour cough frequency (coughs per hour) for a specified visit was calculated as: 24-hour cough frequency=(total number of cough events during the monitoring period (24-hour interval))/24. Awake cough frequency=(total number of cough events during the monitoring period (24-hour interval) while the subject was awake)/(total duration (in hours) during the monitoring period (24-hour interval) that the subject was awake). Percent change in awake cough frequency=[(Change from baseline in awake cough frequency×100)/(Baseline awake cough frequency)]. The proportion of participants with ≥30% of reduction from baseline in awake cough frequency is the number of participants with ≤−30% change in awake cough frequency divided by the total number of participants with available data. For awake and asleep cough frequencies, baseline and treatment data were compared using Wilcoxon signed rank test due to the skewed nature of the data. For 24 hour-, 8 hour-, and 4 hour-cough frequencies, baseline and treatment data were compared using General Estimating Equations (GEE) models. Prior to analysis, these cough count data were natural log (Ln) transformed in order to normalise the distribution of the data. As some individual hourly cough counts were zero, 0.1 was added to all values prior to transformation.

[1] = single 5 mg AX-8 ODT, treatment vs baseline

CC(C)OC(=O)CNC(=O)[C@@H]1C[C@H](C)CC[C@H]1C(C)C [AX-8, [((1R,2S,5R)-2-isopropyl-5-methyl-cyclohexanecarbonyl)-amino]-acetic acid isopropyl ester]
subjects with ≥30% reduction in 24-hour cough frequency per hour (4/12 subjects): 33.3%
subjects with ≥30% reduction in awake cough frequency per hour (4/12 subjects): 33.3%
subjects with ≥30% reduction in 4-hour cough frequency per hour (5/12 subjects): 41.7%
subjects with ≥30% reduction in 8-hour cough frequency per hour (7/12 subjects): 58.3%
Treatment ratio, 24 hours (GEE) (95% CI −0.53 to 0.20, p=0.368): −0.166
reduction in cough frequency during sleep (from 7.1 to 3.7, may not be statistically significant): 48%
reduction in cough frequency during waking hours (from 64.1 to 54.8): 14.5%
Cough frequency, Ln Mean (SE), Treatment, 24 hours (GEE) (natural log transformed, 0.1 added, baseline 2.87 (0.19)): 2.70 (0.33)
Cough frequency, Ln Mean (SE), Treatment, 8 hours (GEE) (natural log transformed, 0.1 added, baseline 3.72 (0.22)): 3.26 (0.39)
Cough frequency, Ln Mean (SE), Treatment, 4 hours (GEE) (natural log transformed, 0.1 added, baseline 3.92 (0.19)): 3.38 (0.39)
Treatment ratio (95% CI), 8 hours (GEE) (p=0.033): −0.461 (−0.88 to −0.04)
Treatment ratio (95% CI), 4 hours (GEE) (p=0.047): −0.54 (−1.08 to −0.01)
Cough frequency, Median, Treatment, Asleep (single 5 mg AX-8 ODT, n=12, baseline 7.1, p=0.272 Wilcoxon): 3.7 (0.6-17.5) coughs/hour
Cough frequency, Median, Treatment, 24 hours (single 5 mg AX-8 ODT, n=12, baseline 48.1): 44.3 coughs/hour
Cough frequency, Median, Treatment, Awake (single 5 mg AX-8 ODT, n=12, baseline 64.1, p=0.034 Wilcoxon): 54.8 (16.4-79.5) coughs/hour
Cough frequency, Median, Treatment, 4 hours (single 5 mg AX-8 ODT, n=12, baseline 71.0): 53.4 coughs/hour
Cough frequency, Median, Treatment, 8 hours (single 5 mg AX-8 ODT, n=12, baseline 75.5): 45.4 coughs/hour
Cough frequency, Change of median, 4 hours [1]: −24.8%
Cough frequency, Change of median, 8 hours [1]: −39.9%
Cough frequency, Change of median, 24 hours [1]: −7.90%
Cough frequency, Change of median, Asleep [1]: −47.9%
Cough frequency, Change of median, Awake [1]: −14.5%
Percentage Change, 8 hours (GEE) (treatment vs baseline, p=0.033): −36.9%
Percentage Change, 4 hours (GEE) (treatment vs baseline, p=0.047): −42.0%
Percentage Change, 24 hours (GEE) (treatment vs baseline, p=0.368): −15.3%

— patent publication US12167995B2, “[((1R,2S,5R)-2-isopropyl-5-methyl-cyclohexanecarbonyl)-amino]-acetic acid isopropyl ester for treatment of chronic cough” (AXALBION SA, priority 2019, dated 2024)
